Assay [1] relates to T-cell. The assay is described as follows: CD25 cell surface staining on T-cells stimulated with anti-CD3 antibody alone (Biological Example 2). The following applies: 1 μM compound, primary human total T-cells, baseline = anti-CD3/anti-CD28 stimulated cells without inhibitor, read-out: CD25 staining, Anti-CD3 stimulation, fold change over baseline. In kind it is cell-based.
Assay [2] has as its system T-cell. The assay is described as follows: CD25 cell surface staining on T-cells co-stimulated with anti-CD3 and anti-CD28 antibody (Biological Example 2). In kind it is cell-based, human. The following applies: Homo sapiens, T-cell, primary human total T-cells, baseline = anti-CD3/anti-CD28 stimulated cells without inhibitor, read-out: CD25 staining, Anti-CD3/Anti-CD28 stimulation, fold change over baseline; for fold induction at 0.3 µM: 0.3 μM compound; for fold induction at 1 µM: 1 μM compound. The gist of the method: (§1)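 T-cells were stimulated with anti-CD3 antibody alone or with anti-CD28 antibody, in the presence or absence of Cbl-b inhibitor. IL-2 secretion or CD25 surface staining was measured, and values expressed as fold over the uninhibited baseline […].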

For assay [3], the system named is T-cell. In words: IL-2 secretion from T-cells co-stimulated with anti-CD3 and anti-CD28 antibody (Biological Example 2). In kind it is cell-based, human. The following applies: Homo sapiens, T-cell, primary human total T-cells, baseline = anti-CD3/anti-CD28 stimulated cells without inhibitor, read-out: IL-2 secretion, Anti-CD3/Anti-CD28 stimulation, fold change over baseline; for fold induction at 0.3 µM: 0.3 μM compound; for fold induction at 1 µM: 1 μM compound. In a few lines: as §1

In assay [4] the target is T1, Cbl-b (Homo sapiens, UniProt Q13191). In words: Cbl-b activity assay (Cbl-b inhibition assay), TR-FRET of Cbl-b interaction with UbcH5B-Ub. In kind it is biochemical. The conditions noted are these: assay buffer with 100 mM NaCl, 60 nM Src kinase; read-out: Cbl-b activity IC50. The gist of the method:
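UbcH5B (C85K) conjugated to N-terminally Bodipy-Fluorescein-labeled ubiquitin served as the fluorescent partner. After compound preincubation, Src kinase (60 nM) with 1 mM ATP and 5 mM MgCl2 (final) was added for 1.5 h, followed by a further 1 h incubation. Some values were obtained with 50 mM NaCl and 30 nM Src.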
For orientation: Time-resolved FRET reads energy transfer from a long-lived donor to a nearby acceptor.

Assay [5] deals with T-cell. The assay is described as follows: IL-2 secretion from T-cells stimulated with anti-CD3 antibody alone (Biological Example 2). In kind it is cell-based. The following applies: 1 μM compound, primary human total T-cells, read-out: IL-2 secretion, Anti-CD3 stimulation, fold change over baseline.
The target of assay [6] is T1, Cbl-b. The assay is described as follows: Cbl-b inhibition assay (Cbl-b activity assay, FRET, Biological Example 1; 100 mM NaCl, 60 nM Src kinase). It counts as biochemical. The conditions noted are these: upper bound stated in text lists; read-out: IC50 values in the Cbl-b inhibition assay of Biological Example 1. In a few lines: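 TR-FRET assay using N-terminal biotinylated Avi-tagged Cbl-b bound to streptavidin-terbium, Src kinase for Cbl-b phosphorylation, and UbcH5B irreversibly conjugated to Bodipy-Fluorescein-ubiquitin. Phosphorylated Cbl-b binds UbcH5B-Ub, bringing the fluorophores together; inhibition is read as loss of FRET signal.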

T1 sequence (Q13191 36-427): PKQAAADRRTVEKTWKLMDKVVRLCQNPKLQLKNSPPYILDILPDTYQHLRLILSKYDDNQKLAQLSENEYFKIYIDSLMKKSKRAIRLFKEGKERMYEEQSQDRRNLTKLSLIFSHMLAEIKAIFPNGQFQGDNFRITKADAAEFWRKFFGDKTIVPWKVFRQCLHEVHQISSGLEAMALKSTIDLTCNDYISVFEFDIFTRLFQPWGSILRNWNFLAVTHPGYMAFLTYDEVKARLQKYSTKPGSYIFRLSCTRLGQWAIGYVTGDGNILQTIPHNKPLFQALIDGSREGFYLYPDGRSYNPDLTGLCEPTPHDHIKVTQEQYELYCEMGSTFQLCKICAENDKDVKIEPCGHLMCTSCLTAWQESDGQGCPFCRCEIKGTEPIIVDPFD

Regarding `C[C@@H](c1cc2c(c(C(F)(F)F)c1)CN(c1cccc(C3(Cc4nncn4C)COC3)c1)C2=O)N1CC(C)(F)C1` [Compound 543a, (S)-6-(1-(3-fluoro-3-methylazetidin-1-yl)ethyl)-2-(3-(3-((4-methyl-4H-1,2,4-triazol-3-yl)methyl)oxetan-3-yl)phenyl)-4-(trifluoromethyl)isoindolin-1-one], the fold induction at 1 µM in the assay with T-cell [1] was over 1; in the assay on T-cell [2], 1.51 to 1.75; in the assay with T-cell [3], over 7.5; with T-cell [5] it was over 0.201. The figures for the fold induction at 0.3 µM in the assay with T-cell [2] and with T-cell [3] were 1.31 to 1.5 and 2.51 to 5, respectively. In addition, the results for the IC50 at Cbl-b [4] and at Cbl-b [6] were under 100 nM and at most 100 nM, respectively.
As for `C[C@H](c1cc2c(c(C(F)(F)F)c1)CN(c1cccc(C3(Cc4nncn4C)COC3)c1)C2=O)N1CC(C)(F)C1` [Compound 543b, (R)-6-(1-(3-fluoro-3-methylazetidin-1-yl)ethyl)-2-(3-(3-((4-methyl-4H-1,2,4-triazol-3-yl)methyl)oxetan-3-yl)phenyl)-4-(trifluoromethyl)isoindolin-1-one], the fold induction at 1 µM in the assay with T-cell [1] is over 1; in the assay with T-cell [2], 1.51 to 1.75; with T-cell [3], over 7.5; in the assay with T-cell [5], over 0.201. The results for the fold induction at 0.3 µM with T-cell [2] and in the assay on T-cell [3] were 1.51 to 1.75 and 5 to 7.5, respectively. Further, the results for the IC50 on Cbl-b [4] and on Cbl-b [6] were under 100 nM and at most 100 nM, respectively.
On to `Cn1cnnc1CC1(c2cccc(N3Cc4c(cc(C(F)(F)C(=O)O)cc4C(F)(F)F)C3=O)c2)COC1` [Example 544, 2,2-difluoro-2-(2-(3-(3-((4-methyl-4H-1,2,4-triazol-3-yl)methyl)oxetan-3-yl)phenyl)-3-oxo-7-(trifluoromethyl)isoindolin-5-yl)acetic acid], for which the fold induction at 1 µM with T-cell [1] was 0.601 to 0.8; in the assay with T-cell [2], 1.01 to 1.3; in the assay on T-cell [3], 1.01 to 2.5; in the assay with T-cell [5], under 0.05. The results for the fold induction at 0.3 µM with T-cell [2] and in the assay on T-cell [3] were 1.01 to 1.3 and 1.01 to 2.5, respectively. Further, the half-maximal inhibitory concentration (IC50) (in general, the concentration at which inhibition is half-maximal) on Cbl-b [4] was 301 to 1000 nM; at Cbl-b [6] it was at most 1000 nM.
With `CC[C@@H](c1cc2c(c(C(F)(F)F)c1)CN(c1cccc(C3(Cc4nncn4C)COC3)c1)C2=O)N1CC[C@H](F)C1` [Example 545, 6-((S)-1-((S)-3-fluoropyrrolidin-1-yl)propyl)-2-(3-(3-((4-methyl-4H-1,2,4-triazol-3-yl)methyl)oxetan-3-yl)phenyl)-4-(trifluoromethyl)isoindolin-1-one], the fold induction at 1 µM in the assay with T-cell [1] was over 1; with T-cell [2] it was 1.51 to 1.75; with T-cell [3], over 7.5; in the assay with T-cell [5] it was over 0.201. Also, the figures for the fold induction at 0.3 µM with T-cell [2] and with T-cell [3] were 1.51 to 1.75 and over 7.5, respectively. The IC50 is under 100 nM on Cbl-b [4] and at most 100 nM at Cbl-b [6].
As to `CC[C@H](c1cc2c(c(C(F)(F)F)c1)CN(c1cccc(C3(Cc4nncn4C)COC3)c1)C2=O)N1CC[C@H](F)C1` [Example 546, 6-((R)-1-((S)-3-fluoropyrrolidin-1-yl)propyl)-2-(3-(3-((4-methyl-4H-1,2,4-triazol-3-yl)methyl)oxetan-3-yl)phenyl)-4-(trifluoromethyl)isoindolin-1-one], the fold induction at 1 µM in the assay on T-cell [1] is over 1; in the assay with T-cell [2], 1.51 to 1.75; in the assay with T-cell [3] it was over 7.5; in the assay on T-cell [5], over 0.201. Besides, the fold induction at 0.3 µM is 1.51 to 1.75 with T-cell [2] and over 7.5 with T-cell [3]. Besides, the IC50 at Cbl-b [4] was under 100 nM; at Cbl-b [6], at most 100 nM.
For `Cn1cnnc1CC1(c2cccc(N3Cc4c(cc(C(F)(F)CO)cc4C(F)(F)F)C3=O)c2)COC1` [Example 547, 6-(1,1-difluoro-2-hydroxyethyl)-2-(3-(3-((4-methyl-4H-1,2,4-triazol-3-yl)methyl)oxetan-3-yl)phenyl)-4-(trifluoromethyl)isoindolin-1-one], the fold induction at 1 µM is 0.801 to 1 in the assay on T-cell [1], 1.01 to 1.3 in the assay with T-cell [2], 1.01 to 2.5 in the assay on T-cell [3] and 0.101 to 0.15 with T-cell [5]. Also, the fold induction at 0.3 µM is 1.01 to 1.3 in the assay on T-cell [2] and 1.01 to 2.5 in the assay with T-cell [3]. Also, the IC50 at Cbl-b [4] is under 100 nM; at Cbl-b [6], at most 100 nM.
In the case of `CN(c1cc2c(c(C(F)(F)F)c1)CN(c1cccc([C@@](C)(F)C(F)(F)c3nncn3C)c1)C2=O)[C@@H]1CNC[C@@H]1F` [Example 548, 6-(((3R,4S)-4-fluoropyrrolidin-3-yl)(methyl)amino)-2-(3-((R)-1,1,2-trifluoro-1-(4-methyl-4H-1,2,4-triazol-3-yl)propan-2-yl)phenyl)-4-(trifluoro-methyl)isoindolin-1-one], the fold induction at 1 µM lay in the range of 0.601 to 0.8 in the assay on T-cell [1], 1.01 to 1.3 in the assay on T-cell [2], 2.51 to 5 with T-cell [3] and 0.101 to 0.15 in the assay with T-cell [5]. Besides, the fold induction at 0.3 µM with T-cell [2] was in the range of 1.01 to 1.3; in the assay on T-cell [3], 1.01 to 2.5. The figures for the IC50 on Cbl-b [4] and at Cbl-b [6] were 100 to 300 nM and at most 300 nM, respectively.
`CN(c1cc2c(c(C(F)(F)F)c1)CN(c1cccc([C@@](C)(F)C(F)(F)c3nncn3C)c1)C2=O)[C@H]1CNC[C@H]1F` [Example 549, 6-(((3S,4R)-4-fluoropyrrolidin-3-yl)(methyl)amino)-2-(3-((R)-1,1,2-trifluoro-1-(4-methyl-4H-1,2,4-triazol-3-yl)propan-2-yl)phenyl)-4-(trifluoromethyl)iso-indolin-1-one]: the fold induction at 1 µM in the assay with T-cell [1] is 0.801 to 1; in the assay with T-cell [2] it was 1.31 to 1.5; with T-cell [3] it was 2.51 to 5; in the assay on T-cell [5], 0.151 to 0.2. The fold induction at 0.3 µM in the assay on T-cell [2] lay in the range of 1.01 to 1.3; in the assay with T-cell [3] it was 1.01 to 2.5. The results for the IC50 on Cbl-b [4] and at Cbl-b [6] were 100 to 300 nM and at most 300 nM, respectively.
As to `C[C@@H](c1cc2c(c(C(F)(F)F)c1)CN(c1cccc(C3(Cc4nncn4C)COC3)c1)C2=O)N1CCC2(CC1)CC2` [Example 558a, (S)-6-(1-(6-azaspiro[2.5]octan-6-yl)ethyl)-2-(3-(3-((4-methyl-4H-1,2,4-triazol-3-yl)methyl)oxetan-3-yl)phenyl)-4-(trifluoromethyl)isoindolin-1-one], the fold induction at 1 µM is over 1 with T-cell [1], 1.01 to 1.3 in the assay with T-cell [2], over 7.5 in the assay with T-cell [3] and over 0.201 in the assay on T-cell [5]. Besides, the fold induction at 0.3 µM in the assay with T-cell [2] is 1.01 to 1.3; in the assay on T-cell [3], over 7.5. Besides, the values for the IC50 on Cbl-b [4] and on Cbl-b [6] were under 100 nM and at most 100 nM, respectively.
As for `C[C@H](c1cc2c(c(C(F)(F)F)c1)CN(c1cccc(C3(Cc4nncn4C)COC3)c1)C2=O)N1CCC2(CC1)CC2` [Example 558b, (R)-6-(1-(6-azaspiro[2.5]octan-6-yl)ethyl)-2-(3-(3-((4-methyl-4H-1,2,4-triazol-3-yl)methyl)oxetan-3-yl)phenyl)-4-(trifluoromethyl)isoindolin-1-one], the fold induction at 1 µM with T-cell [1] was over 1; in the assay on T-cell [2] it was 1.01 to 1.3; with T-cell [3] it was over 7.5; in the assay with T-cell [5] it was over 0.201. The fold induction at 0.3 µM with T-cell [2] is 1.01 to 1.3; in the assay on T-cell [3], over 7.5. Moreover, the IC50 at Cbl-b [4] was under 100 nM; on Cbl-b [6], at most 100 nM.

The values are drawn from US20220324835A1 (Nurix Therapeutics, Inc., priority 2018, published 2022).
